Laboratory results published in patent publication US12527880B2, “Cyanine-based telodendrimers and uses for treating cancer” (priority 2018, dated 2026).

Assays:
[1] = In vivo blood elimination kinetics; set-up: species or system female Sprague-Dawley rats
Excerpt: In vivo blood elimination kinetics. The jugular vein of female Sprague-Dawley rats was implanted with catheter for blood collection (Harland, Indianapolis, IN, USA). […] All of the blood samples were collected from the catheter at different time point. Micro-plate reader (SpectraMax M2) was used to measure the ICG concentration at absorbance at 808 nm.

[2] = test system: OSC-3 oral cancer cells
Description: The in vitro cell cytotoxicity, cellular uptake study and combination therapy of samples were assessed on human OSC-3 oral cancer cell line, which was purchased from American type culture collection (ATCC). The cells were cultured with DMEM supplemented with 10% FBS and 1% Penicillin at 37° C. in humidified atmosphere with 5% CO2 for 24 h. Then the samples were added to each well and the cells were incubated at 37° C. for an additional 24 h. After the incubation, the relative cell viabilities were measured by the MTS assay. […] For in vitro chemo-/photothermal combination therapy, OSC-3 cells were seeded into 96-well plates (n=3) and incubated with different samples for 4 h, followed by exposure to an 808 nm NIR laser (0.8 W cm^2, 2 min). Thereafter, the cells were incubated for another 24 h at 37° C. and MTS reagent was added into each well. The relative cell viabilities were then measured by MTS assay. Percentage of cell viability represents drug effect, and 100% means all cells survived. Cell viability was calculated using the following equation: Cell viability (%)=(OD490 nm of treatment/OD490 nm of blank control)×100%. For in vitro cells apoptosis experiment, OSC-3 cells were co-cultured with different samples (DOX concentration: 25 μg mL^−1 and 808 nm NIR laser (0.8 W cm^2, 2 min), if applied) for 8 h. Cells were washed two times and replaced with fresh medium.

[3] = female, Sprague-Dawley, rat, blood, iv, 5 mg kg^−1, rats

Row | time to clearance from circulation ([1]; after intravenous administration) [min] | AUC [1, 3] [µg·h/mL] | half-life [1, 3] [min] | SMILES | cell viability [2] [%]
1 | ≤ 30 | 12.1 | 5.22 | CC1(C)C(/C=C/C=C/C=C/C=C2\N(CCCCS(=O)(=O)O)c3ccc4ccccc4c3C2(C)C)=[N+](CCCCS(=O)(=O)[O-])c2ccc3ccccc3c21 [free ICG, indocyanine green] | –
2 | – | – | – | COc1cccc2c1C(=O)c1c(O)c3c(c(O)c1C2=O)C[C@@](O)(C(=O)CO)C[C@@H]3O[C@H]1C[C@H](N)[C@H](O)[C@H](C)O1 [free DOX, doxorubicin] | 61
